{"source": "patent US20240238310A1", "about": "“MODULATION OF SEX STEROID HORMONE PRODUCTION AND ACTIVITY FOR TREATING AND PREVENTING HERNIAS” (Northwestern University, priority 2020, published 2024)", "biological_target": "T1, ERα (Mus musculus, UniProt P19785)", "T1 construct": "ERα in LAMT is almost exclusively expressed in fibroblasts; endogenous in cells; host or cells: primary LAMT fibrosis-associated fibroblasts (passage 0) from 4-week-old Arom^hum (FVB/N background) male mice", "T1 sequence (P19785 1-599)": "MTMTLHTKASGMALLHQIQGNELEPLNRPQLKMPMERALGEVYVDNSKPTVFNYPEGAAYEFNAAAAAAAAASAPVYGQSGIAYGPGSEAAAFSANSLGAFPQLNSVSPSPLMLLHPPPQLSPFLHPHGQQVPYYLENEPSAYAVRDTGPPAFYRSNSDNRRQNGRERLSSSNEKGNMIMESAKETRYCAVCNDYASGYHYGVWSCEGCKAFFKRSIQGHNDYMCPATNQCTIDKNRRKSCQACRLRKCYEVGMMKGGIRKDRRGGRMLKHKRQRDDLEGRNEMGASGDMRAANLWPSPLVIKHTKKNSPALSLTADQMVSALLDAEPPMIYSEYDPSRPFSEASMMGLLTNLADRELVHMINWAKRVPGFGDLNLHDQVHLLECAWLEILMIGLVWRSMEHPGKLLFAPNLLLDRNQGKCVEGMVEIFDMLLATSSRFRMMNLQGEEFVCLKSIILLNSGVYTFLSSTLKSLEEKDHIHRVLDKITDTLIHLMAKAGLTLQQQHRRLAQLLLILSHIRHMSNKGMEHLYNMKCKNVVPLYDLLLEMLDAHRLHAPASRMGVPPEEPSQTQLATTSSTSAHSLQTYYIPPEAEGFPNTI", "assay": "ERα ChIP-seq, histone ChIP-seq and RNA-seq in LAMT FAFs treated with E2 or fulvestrant (planned)", "assay_type": "cell-based", "conditions": "expected result (Aim 1); fulvestrant 10^−7 M, 24 h", "excerpt": "Early herniation in Arom^hum mice usually become visible around 4 weeks of age (FIG. 5). Thus, we will isolate LAMT transformed FAFs at 4 weeks of age. We routinely culture primary fibroblast cells from LAMT of both WT and Arom^hum mice (FIGS. 6-9). The quantity of FAFs (>10^7 cells/Arom^hum mouse) is sufficient for performing the proposed experiments. Previously, we successfully used two antibodies for ERα ChIP-seq or other genome-wide ChIP approaches^84, 85. We will perform optimization studies (ChIP-western and conventional ChIP) with both antibodies in primary muscle fibroblasts and use the most suitable antibody for ChIP-seq^84. […] Library quality will be assessed using the Agilent 2100 Bioanalyzer. Sequencing will be performed at the Next-Generation Sequencing Core at Northwestern to obtain 30 million single-end 75-bp reads per sample. […]\nExperiment 1b2: We will perform RNA-seq at 40 million reads per sample on the 12 LAMT FAF samples treated for 24 h with vehicle, E2 (10^−8M), or fulvestrant (10^-7 M) (n=4 mice/group). […] The RNA-seq data will be evaluated using pathway analysis and gene enrichment strategies with respect to the differentially expressed (DE) transcripts/genes induced by E2 and reversed by fulvestrant.\nBioinformatics analysis for ChIP-seq, RNA-seq, and their integration. […] The differential binding (DB) sites will be detected using csaw^89. […]"}
{"smiles": "C[C@]12CC[C@@H]3c4ccc(O)cc4C[C@@H](CCCCCCCCC[S+]([O-])CCCC(F)(F)C(F)(F)F)[C@H]3[C@@H]1CC[C@@H]2O", "note": "(stereo partly shown) [fulvestrant]", "values": [{"measurement": "E2-induced ERα binding, histone modification and gene expression profiles in LAMT FAFs", "value": "will block or partially reverse E2-induced ERα binding and histone modification, and alter gene expression profiles"}]}
